Results taken from US7629346B2, “Pyrazinecarboxamide derivatives as CB1 antagonists” (Hoffmann-La Roche Inc., priority 2006, dated 2009).
Like-named read-outs stand apart in the source and are kept apart here.

Tests used:
[1] = biological target: T1, human cannabis CB1 receptor (Homo sapiens, UniProt P21554); test: Affinity for cannabinoid CB1 receptors, [3H]-CP-55,940 radioligand binding on HEK cell membranes
T1 construct: expressed in transfected cells; host or cells: human embryonic kidney (HEK) cells, Semliki Forest Virus system, membrane preparation
Experimental: The affinity of the compounds of the invention for cannabinoid CB1 receptors was determined using membrane preparations of human embryonic kidney (HEK) cells in which the human cannabis CB1 receptor is transiently transfected using the Semliki Forest Virus system in conjunction with [3H]-CP-55,940 as radioligand. After incubation of a freshly prepared cell membrane preparation with the [3H]-ligand, with or without addition of compounds of the invention, separation of bound and free ligand was performed by filtration over glassfiber filters. Radioactivity on the filter was measured by liquid scintillation counting.
The compounds of formula (I) show an excellent affinity for the CB1 receptor, determined with the experimental conditions described in Devane et. al. Mol. Pharmacol. 34 (1988) 605-613.

[2] = phase III trial STRATUS-US; cited from earlier work
[3] = wild-type versus CB1 knockout mice; cited from earlier work
[4] = several phase III studies; cited from earlier work
[5] = 10 and 20 mg daily; cited from earlier work
[6] = [3H]-CP-55,940 as radioligand, membranes of HEK cells transfected with human CB1 receptor, read-out: Ki

T1 sequence (P21554 whole entry): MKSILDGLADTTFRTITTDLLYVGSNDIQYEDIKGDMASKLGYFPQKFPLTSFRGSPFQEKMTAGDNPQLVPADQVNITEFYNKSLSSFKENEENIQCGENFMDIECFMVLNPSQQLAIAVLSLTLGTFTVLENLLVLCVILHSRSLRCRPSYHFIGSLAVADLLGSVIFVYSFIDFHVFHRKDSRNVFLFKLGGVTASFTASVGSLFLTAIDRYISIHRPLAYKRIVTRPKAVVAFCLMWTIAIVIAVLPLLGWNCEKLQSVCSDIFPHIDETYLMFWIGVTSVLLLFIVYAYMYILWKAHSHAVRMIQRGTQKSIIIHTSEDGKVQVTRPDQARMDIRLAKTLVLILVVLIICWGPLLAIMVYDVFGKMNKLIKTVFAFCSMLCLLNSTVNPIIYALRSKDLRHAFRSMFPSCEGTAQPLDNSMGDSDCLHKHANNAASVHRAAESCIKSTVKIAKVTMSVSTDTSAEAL

`COCCOc1ncc(C(=O)NC[C@](C)(O)C2CC2)nc1-c1ccc(Cl)cc1` [Example 27, 6-(4-Chloro-phenyl)-5-(2-methoxy-ethoxy)-pyrazine-2-carboxylic acid ((R)-2-cyclopropyl-2-hydroxy-propyl)-amide] showed a Ki [1] of 47.5 nM.
For `CN(c1ncc(C(=O)N[C@@H]2CCCC[C@H]2O)nc1-c1ccc(OC(F)(F)F)cc1)C1CC1` [Example 21, 5-(Cyclopropyl-methyl-amino)-6-(4-trifluoromethoxy-phenyl)-pyrazine-2-carboxylic acid ((1R,2R)-2-hydroxy-cyclohexyl)-amide], the Ki [1, 6] was 35.4 nM.
Work on `C[C@](O)(CNC(=O)c1cnc(OCc2ncccn2)c(-c2ccc(F)cc2)n1)C1CC1` [Example 69, 6-(4-Fluoro-phenyl)-5-(pyrimidin-2-ylmethoxy)-pyrazine-2-carboxylic acid ((R)-2-cyclopropyl-2-hydroxy-propyl)-amide] yielded a Ki [1, 6] of 12.2 nM.
In the case of `Cc1c(C(=O)NN2CCCCC2)nn(-c2ccc(Cl)cc2Cl)c1-c1ccc(Cl)cc1` [SR 141716, Rimonabant], the “efficacy for smoking cessation” value [2] is listed as “has shown efficacy”, the food intake [3] is listed as “reduces food intake in wild-type but not knockout mice” and the “body weight, waist circumference and metabolic parameters (plasma HDL, triglycerides and insulin sensitivity)” value [4] is listed as “reduced body weight, waist circumference and improved metabolic parameters”. The “body weight compared to placebo” value [5] was “significantly reduced body weight”.
